Data from patent publication US20250262228A1, “TREATMENT OF SPASTICITY AND PAIN IN RENALLY-IMPAIRED PATIENTS” (Jazz Pharmaceuticals Research UK Limited., priority 2022, published 2025).

Tests used:
[1] = for mean plasma concentrations over time in renally impaired participants versus normal: FIGS. 1-4; for mean plasma concentrations over time in renally impaired participants versus normal / Cmax, Geometric LS Mean Ratio (Severe RI/Normal), Estimate / AUClast, Geometric LS Mean Ratio (Severe RI/Normal), Estimate / increase in AUC in the renally impaired group compared to the normal group / AUC0-tlast Fold Change from Normal / increase in AUClast in severe renal impairment versus normal renal function: 4 sprays; for mean plasma concentrations over time in renally impaired participants versus normal / AUC0-tlast Fold Change from Normal: severe renal impairment; for Cmax, Geometric LS Mean Ratio (Severe RI/Normal), Estimate / AUClast, Geometric LS Mean Ratio (Severe RI/Normal), Estimate: plasma, mixed model; for AUClast, Geometric LS Mean Ratio (Severe RI/Normal), Estimate: significant when ratio >=2.0 plus 90% CI outside 0.5-2.0; for elimination in patients with renal impairment: renally impaired vs normal, after oromucosal spray; for increase in AUC in the renally impaired group compared to the normal group / increase in AUClast in severe renal impairment versus normal renal function: severe renal impairment vs normal, oromucosal spray
Excerpt: Rationale: To date, no studies of administering the disclosed oromucosal spray in patients with varying degrees of renal impairment have been conducted. The present trial investigated the effects of the oromucosal spray in subjects with severe renal impairment. The principal aim of this trial was to assess the pharmacokinetic (PK) parameters following oromucosal administration in patients with severe renal impairment and individually matched healthy participants (i.e., otherwise identical patients with normal renal function).
Primary Objectives: Evaluated and compared the PK parameters of the oromucosal spray in participants with severe renal impairment or End-Stage Renal Disease (ESRD) to the PK profile in matched participants with normal renal function.
Primary Endpoints: The PK parameters, derived from the plasma concentration-time (Cmax) and area under the concentration-time curve calculated to the last concentration at time t (AUC0-t), or 48 hours (AUC0-48), for THC, CBD, and metabolites of THC and CBD (e.g., 11-OH-THC and 7-COOH-CBD).
The 4 sprays administered a total of 10.8 mg THC and 10 mg CBD. The duration of the trial was approximately 45 days, which included a screening period (up to 4 weeks), a treatment period (48 hours) and a safety follow-up period (2 weeks). Screening was performed within 28 to 2 days before dosing, and the assessments included measurement of serum creatinine to assess the eGFR as determined by the modification of diet in renal disease formula (MDRD) to verify initial participant eligibility for trial participation. Participants entered the screening period (Day −28 to −1). From Day −1, screened participants who continued to meet eligibility criteria were admitted to the clinical research facility and placed under observation continually from dosing until 48 hours postdose. […] On Day 1, participants received 4 sprays of the oromucosal spray.
Formulation Mode of Administration, Dose, and Regimen: The oromucosal spray was formulated as a mixture of THC and CBD extracts derived from Cannabis sativa L. The formulation contains THC and CBD as the most abundant cannabinoid constituents and also contains minor constituents including related cannabinoids and non-cannabinoid plant components, such as terpenes, sterols, and triglycerides. The spray contains 27 mg/mL of THC and 25 mg/mL of CBD dissolved in the excipients (e.g., ethanol and propylene glycol). Each spray delivers 100 μL containing 2.7 mg of THC and 2.5 mg of CBD.
Procedures: PK samplings were taken as close as to the nominal time point. Participants fasted overnight for at least 10 hours prior to the administration and for at least 4 hours thereafter. Standardized meals and beverages were provided at approximately 4 hours and 9 hours after dosing. With the exception of the water administered at the time of dosing, water was not permitted from 1 hour before until 1 hour after dosing. […] Cannabis or use of anticonvulsants, antidepressants, antipsychotic and anxiolytic medications were not allowed throughout the trial. Alcohol, nicotine products, and consuming food or beverages containing methylxanthines (caffeinated food or beverages) were prohibited for 24 hours prior to each visit and throughout the inpatient period.

[2] = renally impaired patients administered highly purified CBD; cited from earlier work

Structure (SMILES)	mean plasma concentrations over time in renally impaired participants versus normal [1]	Cmax, Geometric LS Mean Ratio (Severe RI/Normal), Estimate [1]	AUClast, Geometric LS Mean Ratio (Severe RI/Normal), Estimate [1]	elimination in patients with renal impairment [1]	increase in AUC in the renally impaired group compared to the normal group [1] [fold]	AUC0-tlast Fold Change from Normal [1] [fold]	clinically relevant elevations of CBD, 7-OH-CBD and 7-COOH-CBD (mean AUClast ratios greater than 2 between the renally impaired and the control) [2]	increase in AUClast in severe renal impairment versus normal renal function [1]
CCCCCc1cc(O)c2c(c1)OC(C)(C)[C@@H]1CCC(CO)=C[C@@H]21 [11-OH-THC]	Much higher	2.13	3.18	clinically significant prolonged elimination	3.18	3.18	–	–
CCCCCc1cc(O)c2c(c1)OC(C)(C)[C@@H]1CCC(C)=C[C@@H]21 [THC, Δ-9-tetrahydrocannabinol, reference compound]	elevated	0.8	1.34	relatively unchanged	–	1.34	–	–
C=C(C)[C@@H]1CCC(C)=C[C@H]1c1c(O)cc(CCCCC)cc1O [CBD, Cannabidiol, reference compound]	elevated	1.11	1.95	relatively unchanged	–	1.95	–	–
C=C(C)[C@@H]1CCC(C)=C[C@H]1c1c(O)cc(CCCCC)cc1O [highly purified form of CBD]	–	–	–	–	–	–	not observed	–
C=C(C)[C@@H]1CCC(C(=O)O)=C[C@H]1c1c(O)cc(CCCCC)cc1O [7-COOH-CBD]	–	1.4	1.92	relatively unchanged	–	1.92	–	< 2 fold
C=C(C)[C@@H]1CCC(CO)=C[C@H]1c1c(O)cc(CCCCC)cc1O [7-OH-CBD]	–	1.89	4.59	clinically significant prolonged elimination	4.59	4.59	–	approximately 3 fold
CCCCCc1cc(O)c2c(c1)OC(C)(C)[C@@H]1CCC(C(=O)O)=C[C@@H]21 [11-COOH-THC]	–	1.15	1.26	relatively unchanged	–	1.26	–	–
